Measurements from PubChem BioAssay AID2060883 (Molecular Pharmacology Branch, DTP, NCI, 2025).

System: 843782-103-R-J1-PDC complex spheroid viability
Assay: Anticancer human tumor 843782-103-R-J1-PDC patient-derived lung adenocarcinoma cell line growth inhibition [RAS]
Conditions: for IC50: curve of first compound; for viability, T/C: stronger effect = lower value
Method in brief: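 Tumour cells grown as complex spheroids with HUVEC endothelial cells and mesenchymal stem cells, treated with RAS pathway inhibitor combinations. Each agent spans half-log steps from near clinical Cmax, or 10 microM where Cmax is unknown.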

[1] = second compound 0.000949 µM, first compound 0.0316 µM
[2] = second compound 0.000949 µM, first compound 0.1 µM
[3] = second compound 0.000949 µM, first compound 0.316 µM
[4] = second compound 0.000949 µM, first compound 1 µM
[5] = second compound 0.003 µM, first compound 0.0316 µM
[6] = second compound 0.003 µM, first compound 0.1 µM
[7] = second compound 0.003 µM, first compound 0.316 µM
[8] = second compound 0.003 µM, first compound 1 µM
[9] = second compound 0.00949 µM, first compound 0.0316 µM
[10] = second compound 0.00949 µM, first compound 0.1 µM
[11] = second compound 0.00949 µM, first compound 0.316 µM
[12] = second compound 0.00949 µM, first compound 1 µM
[13] = second compound 0.03 µM, first compound 0.0316 µM
[14] = second compound 0.03 µM, first compound 0.1 µM
[15] = second compound 0.03 µM, first compound 0.316 µM
[16] = second compound 0.03 µM, first compound 1 µM
[17] = second compound 0.0949 µM, first compound 0.0316 µM
[18] = second compound 0.0949 µM, first compound 0.1 µM
[19] = second compound 0.0949 µM, first compound 0.316 µM
[20] = second compound 0.0949 µM, first compound 1 µM
[21] = second compound 0.3 µM, first compound 0.0316 µM
[22] = second compound 0.3 µM, first compound 0.1 µM
[23] = second compound 0.3 µM, first compound 0.316 µM
[24] = second compound 0.3 µM, first compound 1 µM
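Also: viability read after seven days of compound exposure.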

Question: Which IC50 (second compound 0.000949 µM) does the source give for `CC(=O)OC12COC1CC(O)C1(C)C(=O)C(O)C3=C(C)C(OC(=O)C(O)C(NC(=O)OC(C)(C)C)c4ccccc4)CC(O)(C(OC(=O)c4ccccc4)C21)C3(C)C` (stereo unspecified) + CCn1c(-c2cccnc2C(C)OC)c2c3cc(ccc31)N1CCOC(CC(NC(=O)C(C(C)C)N(C)C(=O)C3(F)CCN(C(=O)C#CC(C)(C)N(C)C)CC3)C(=O)N3CCCC(N3)C(=O)OCC(C)(C)C2)C1 here?
Answer: < 31.6 nM

Question: And the IC50 (second compound 0.003 µM)?
Answer: < 31.6 nM

Question: What about the IC50 (second compound 0.00949 µM) of the same molecule?
Answer: < 31.6 nM

Question: What about the IC50 (second compound 0.03 µM) of the same molecule?
Answer: < 31.6 nM

Question: What about the IC50 (second compound 0.0949 µM) of the same molecule?
Answer: < 31.6 nM

Question: And the IC50 (second compound 0.3 µM)?
Answer: < 31.6 nM

Question: What about the viability, T/C [1] of the same molecule?
Answer: 4.08%

Question: What about the viability, T/C [2] of the same molecule?
Answer: 5.48%

Question: What about the viability, T/C [3] of the same molecule?
Answer: 6.81%

Question: And the viability, T/C [4]?
Answer: 5.51%

Question: And the viability, T/C (second compound 0.000949 µM, first compound 3.16 µM)?
Answer: 7.48%

Question: What about the viability, T/C (second compound 0.000949 µM, first compound 10 µM) of the same molecule?
Answer: 11.2%

Question: What about the viability, T/C [5] of the same molecule?
Answer: 5.53%

Question: What about the viability, T/C [6] of the same molecule?
Answer: 7.6%

Question: What about the viability, T/C [7] of the same molecule?
Answer: 7.77%

Question: What about the viability, T/C [8] of the same molecule?
Answer: 6.28%

Question: What about the viability, T/C (second compound 0.003 µM, first compound 3.16 µM) of the same molecule?
Answer: 6.75%

Question: What about the viability, T/C (second compound 0.003 µM, first compound 10 µM) of the same molecule?
Answer: 9.92%

Question: And the viability, T/C [9]?
Answer: 5.3%

Question: And the viability, T/C [10]?
Answer: 8.65%

Question: And the viability, T/C [11]?
Answer: 9.68%

Question: And the viability, T/C [12]?
Answer: 7.03%

Question: What about the viability, T/C (second compound 0.00949 µM, first compound 3.16 µM) of the same molecule?
Answer: 10%

Question: And the viability, T/C (second compound 0.00949 µM, first compound 10 µM)?
Answer: 9.14%

Question: And the viability, T/C [13]?
Answer: 5.25%

Question: And the viability, T/C [14]?
Answer: 7.67%

Question: What about the viability, T/C [15] of the same molecule?
Answer: 6.65%

Question: What about the viability, T/C [16] of the same molecule?
Answer: 8.38%

Question: And the viability, T/C (second compound 0.03 µM, first compound 3.16 µM)?
Answer: 9.51%

Question: What about the viability, T/C (second compound 0.03 µM, first compound 10 µM) of the same molecule?
Answer: 12.3%

Question: And the viability, T/C [17]?
Answer: 8.61%

Question: And the viability, T/C [18]?
Answer: 7.03%

Question: What about the viability, T/C [19] of the same molecule?
Answer: 8.34%

Question: And the viability, T/C [20]?
Answer: 7.78%

Question: And the viability, T/C (second compound 0.0949 µM, first compound 3.16 µM)?
Answer: 10.6%

Question: What about the viability, T/C (second compound 0.0949 µM, first compound 10 µM) of the same molecule?
Answer: 9.37%

Question: What about the viability, T/C [21] of the same molecule?
Answer: 3.84%

Question: What about the viability, T/C [22] of the same molecule?
Answer: 5.17%

Question: What about the viability, T/C [23] of the same molecule?
Answer: 6.69%

Question: And the viability, T/C [24]?
Answer: 9.62%

Question: And the viability, T/C (second compound 0.3 µM, first compound 3.16 µM)?
Answer: 8.58%

Question: And the viability, T/C (second compound 0.3 µM, first compound 10 µM)?
Answer: 9.58%

Question: For `C[C@@H](NC(=O)c1ncnc(N)c1Cl)c1ncc(C(=O)Nc2cc(C(F)(F)F)c(Cl)cn2)s1` + C#Cc1c(F)ccc2cc(O)cc(-c3ncc4c(N5CC6CCC(C5)N6)nc(OCC56CCCN5CC(F)C6)nc4c3F)c12, which IC50 (second compound 0.0316 µM) is on record?
Answer: > 10000 nM

Question: What about the IC50 (second compound 0.1 µM) of the same molecule?
Answer: > 10000 nM

Question: And the IC50 (second compound 0.316 µM)?
Answer: > 10000 nM

Question: And the IC50 (second compound 1 µM)?
Answer: > 10000 nM

Question: What about the IC50 (second compound 3.16 µM) of the same molecule?
Answer: > 10000 nM

Question: And the IC50 (second compound 10 µM)?
Answer: > 10000 nM

Question: What about the viability, T/C (second compound 0.0316 µM, first compound 0.0316 µM) of the same molecule?
Answer: 114%

Question: And the viability, T/C (second compound 0.0316 µM, first compound 0.1 µM)?
Answer: 97.2%

Question: And the viability, T/C (second compound 0.0316 µM, first compound 0.316 µM)?
Answer: 99.9%

Question: What about the viability, T/C (second compound 0.0316 µM, first compound 1 µM) of the same molecule?
Answer: 101%

Question: And the viability, T/C (second compound 0.0316 µM, first compound 3.16 µM)?
Answer: 112%

Question: And the viability, T/C (second compound 0.0316 µM, first compound 10 µM)?
Answer: 101%

Question: What about the viability, T/C (second compound 0.1 µM, first compound 0.0316 µM) of the same molecule?
Answer: 112%

Question: And the viability, T/C (second compound 0.1 µM, first compound 0.1 µM)?
Answer: 105%

Question: What about the viability, T/C (second compound 0.1 µM, first compound 0.316 µM) of the same molecule?
Answer: 98.6%

Question: And the viability, T/C (second compound 0.1 µM, first compound 1 µM)?
Answer: 101%

Question: What about the viability, T/C (second compound 0.1 µM, first compound 3.16 µM) of the same molecule?
Answer: 101%

Question: And the viability, T/C (second compound 0.1 µM, first compound 10 µM)?
Answer: 105%

Question: And the viability, T/C (second compound 0.316 µM, first compound 0.0316 µM)?
Answer: 110%

Question: What about the viability, T/C (second compound 0.316 µM, first compound 0.1 µM) of the same molecule?
Answer: 104%

Question: What about the viability, T/C (second compound 0.316 µM, first compound 0.316 µM) of the same molecule?
Answer: 103%

Question: What about the viability, T/C (second compound 0.316 µM, first compound 1 µM) of the same molecule?
Answer: 102%

Question: And the viability, T/C (second compound 0.316 µM, first compound 3.16 µM)?
Answer: 106%

Question: And the viability, T/C (second compound 0.316 µM, first compound 10 µM)?
Answer: 108%

Question: And the viability, T/C (second compound 1 µM, first compound 0.0316 µM)?
Answer: 101%

Question: And the viability, T/C (second compound 1 µM, first compound 0.1 µM)?
Answer: 100%

Question: What about the viability, T/C (second compound 1 µM, first compound 0.316 µM) of the same molecule?
Answer: 105%

Question: What about the viability, T/C (second compound 1 µM, first compound 1 µM) of the same molecule?
Answer: 101%

Question: And the viability, T/C (second compound 1 µM, first compound 3.16 µM)?
Answer: 97.2%

Question: What about the viability, T/C (second compound 1 µM, first compound 10 µM) of the same molecule?
Answer: 95.9%

Question: And the viability, T/C (second compound 3.16 µM, first compound 0.0316 µM)?
Answer: 86.9%

Question: What about the viability, T/C (second compound 3.16 µM, first compound 0.1 µM) of the same molecule?
Answer: 91%

Question: What about the viability, T/C (second compound 3.16 µM, first compound 0.316 µM) of the same molecule?
Answer: 90.5%

Question: What about the viability, T/C (second compound 3.16 µM, first compound 1 µM) of the same molecule?
Answer: 92.7%

Question: What about the viability, T/C (second compound 3.16 µM, first compound 3.16 µM) of the same molecule?
Answer: 80.9%

Question: And the viability, T/C (second compound 3.16 µM, first compound 10 µM)?
Answer: 87.2%

Question: What about the viability, T/C (second compound 10 µM, first compound 0.0316 µM) of the same molecule?
Answer: 73.3%

Question: And the viability, T/C (second compound 10 µM, first compound 0.1 µM)?
Answer: 84.3%

Question: What about the viability, T/C (second compound 10 µM, first compound 0.316 µM) of the same molecule?
Answer: 64.8%

Question: And the viability, T/C (second compound 10 µM, first compound 1 µM)?
Answer: 48.9%

Question: What about the viability, T/C (second compound 10 µM, first compound 3.16 µM) of the same molecule?
Answer: 54.9%

Question: What about the viability, T/C (second compound 10 µM, first compound 10 µM) of the same molecule?
Answer: 49.1%

Question: Which results are given for `Nc1ccn(C2OC(CO)C(O)C2(F)F)c(=O)n1` (stereo unspecified) + CCn1c(-c2cc(N3CCN(C)CC3)cnc2C(C)OC)c2c3cc(ccc31)-c1csc(n1)CC(NC(=O)C1CC1C)C(=O)N1CCCC(N1)C(=O)OCC(C)(C)C2?
Answer: IC50 (second compound 0.000949 µM): 17.9 nM; IC50 (second compound 0.003 µM): 11.5 nM; IC50 (second compound 0.00949 µM): < 3.16 nM; IC50 (second compound 0.03 µM): < 3.16 nM; IC50 (second compound 0.0949 µM): < 3.16 nM; IC50 (second compound 0.3 µM): < 3.16 nM; viability, T/C (second compound 0.000949 µM, first compound 0.00316 µM): 83.4%; viability, T/C (second compound 0.000949 µM, first compound 0.01 µM): 73.4%; viability, T/C [1]: 27.1%; viability, T/C [2]: 3.62%; viability, T/C [3]: 1.6%; viability, T/C [4]: 2.63%; viability, T/C (second compound 0.003 µM, first compound 0.00316 µM): 64.4%; viability, T/C (second compound 0.003 µM, first compound 0.01 µM): 54%; viability, T/C [5]: 20.3%; viability, T/C [6]: 3.76%; viability, T/C [7]: 1.56%; viability, T/C [8]: 1.61%; viability, T/C (second compound 0.00949 µM, first compound 0.00316 µM): 37.1%; viability, T/C (second compound 0.00949 µM, first compound 0.01 µM): 36.2%; viability, T/C [9]: 16.3%; viability, T/C [10]: 5.56%; viability, T/C [11]: 2.02%; viability, T/C [12]: 1.82%; viability, T/C (second compound 0.03 µM, first compound 0.00316 µM): 19%; viability, T/C (second compound 0.03 µM, first compound 0.01 µM): 22.7%; viability, T/C [13]: 15.8%; viability, T/C [14]: 7.32%; viability, T/C [15]: 2.39%; viability, T/C [16]: 1.81%; viability, T/C (second compound 0.0949 µM, first compound 0.00316 µM): 15.9%; viability, T/C (second compound 0.0949 µM, first compound 0.01 µM): 18.9%; viability, T/C [17]: 13.9%; viability, T/C [18]: 11.8%; viability, T/C [19]: 4.42%; viability, T/C [20]: 2.61%; viability, T/C (second compound 0.3 µM, first compound 0.00316 µM): 14.3%; viability, T/C (second compound 0.3 µM, first compound 0.01 µM): 16.6%; viability, T/C [21]: 16.6%; viability, T/C [22]: 12.6%; viability, T/C [23]: 7.82%; viability, T/C [24]: 3.72%
